Measurements: patent publication US6610763B1, “Polymer composition, the production and further processing thereof into receptacles” (priority 1998, dated 2003)

Key:
[1] = test system: Klebsiella pneumoni (ATCC 4352) and Staphylococcus aureus (ATCC 6538); assay: inhibiting zone test on agar plates; format: cell-based; details: various concentrations on 6-mm filter disks, approximately 16 hours of incubation on agar plates, FIG. 1
Method: For purposes of determining the concentration by means of the inhibiting zone tests, Klebsiella pneumoni (ATCC 4352) and Staphylococcus aureus (ATCC 6538) were bred on casein soy-meal broth (CM, oxoid), then plated out onto casein-peptone soy-meal agar (CM 131, oxoid) and incubated at 37° C. [98.6° F.]. Up to 50 μl of Irgasan DP 300 were applied onto 6-mm filter disks.
For this purpose, first of all, a test was drawn up that makes it possible to quantitatively detect the anti-microbial effect of test specimens containing 0.2% Irgasan DP 300 and Irgasan DP 300 as a pure substance. In order to examine the migration of the additive and the sensitivity of various test germs, an inhibiting zone test was conducted: test specimens were incubated on agar plates that had been inoculated with these germs. As indicators, two microorganisms were employed whose minimum inhibiting concentration (MIC) with respect to Irgasan DP 300 was between 0.01 ppm and 0.3 ppm, according to information provided by the manufacturer. The kinetics of the release of active ingredient into an aqueous solution were examined by incubating test specimens in a defined volume and by subsequently evaluating them with a spectroscope as well as in the inhibiting zone test. Both methods were calibrated by means of parallel batches with the pure substance. […]

[2] = saturation concentration in water; format: physicochemical; details: room temperature
[3] = in vivo; cited from earlier work

SMILES: Oc1cc(Cl)ccc1Oc1ccc(Cl)cc1Cl [Irgasan DP 300, 2,4,4′-trichloro-2′-hydroxydiphenyl ether]
- microbial growth in inhibiting zones [1]: do not exhibit any microbial growth
- saturation concentration in water [2]: about 10 ppm
- accumulation in the body [3]: does not accumulate in the body
- toxicity in view of LD50 value [3]: practically non-toxic
